The values that follow are results of earlier work, collected in patent US20140079639A1, “METHODS AND COMPOSITIONS FOR IDENTIFYING, PRODUCING AND USING PLANT-DERIVED PRODUCTS FOR MODULATING CELL FUNCTION AND AGING” (LIFESPAN EXTENSION, LLC, priority 2009, published 2014).

Structures are written as SMILES.

In one data set the test system is fibroblast cells. To be noted: cells treated in culture.
The conditions of data set [1]: oxidation of lipids due to e.g. UV radiation or free radical damage.
For data set [2] the following is noted: when absorbed into the body.

As for `O=C(O)/C=C/c1ccc(O)c(O)c1` [Caffeic Acid, (E)-3-(3,4-dihydroxyphenyl)-2-propenoic acid], the solubility result is “soluble in water and alcohol”.

On to `NCCC(=O)N[C@@H](Cc1cnc[nH]1)C(=O)O` [Carnosine], for which, in the data set on fibroblast cells, the “extension of lifespan of fibroblast cells past the Hayflick limit of non-treated cells” value is “up to 10 divisions”.

On to `COC1=C(OC)C(=O)C(CCCCCCCCCCO)=C(C)C1=O` [idebenone, 6-(10-hydroxydecyl)-2,3-dimethoxy-5-methyl-1,4-benzoquin-one], for which, in data set [1], the “reduction of lipid hydroperoxides among the tested antioxidants” value was “highest reduction”.

Turning to `COC1=C(OC)C(=O)C(C/C=C(\C)CC/C=C(\C)CC/C=C(\C)CC/C=C(\C)CC/C=C(\C)CC/C=C(\C)CC/C=C(\C)CC/C=C(\C)CC/C=C(\C)CCC=C(C)C)=C(C)C1=O` [ubiquinone, Ubiquinone], the “conversion to the active antioxidant form ubiquinol” value in data set [2] is listed as 90%.
